Results published in the supplement of paper PMC4862054.

Legend:
Assay in all cases: normalised viability (% of control), CellTiter-Blue; higher = more viable cells (about 100 = DMSO control)
Conditions in all cases: incubation time: 72 h
MDA-MB-468 = tested on: MDA-MB-468
Outline: (§1)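 Each value is normalised viability at a single listed concentration of the series. Breast cancer cell lines in 384-well plates were incubated 72 h with compound and read by CellTiter-Blue fluorescence at 560/590 nm, with vehicle set to 100 and a positive kill control to 0 on every plate.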

DU-4475 = tested on: DU-4475
Outline: as §1

HCC1599 = tested on: HCC1599
Outline: as §1

HDQ-P1 = tested on: HDQ-P1
Outline: as §1

CAL-51 = tested on: CAL-51
Outline: as §1

Hs578T = tested on: Hs578T
Outline: as §1

HCC1143 = tested on: HCC1143
Outline: as §1

CAL-85-1 = tested on: CAL-85-1
Outline: as §1

BT-474 = tested on: BT-474
Outline: as §1

HCC1937 = tested on: HCC1937
Outline: as §1

CAL-148 = tested on: CAL-148
Outline: as §1

CAL-120 = tested on: CAL-120
Outline: as §1

SK-BR-3 = tested on: SK-BR-3
Outline: as §1

MDA-MB-453 = tested on: MDA-MB-453
Outline: as §1

BT-549 = tested on: BT-549
Outline: as §1

O=C1CCC(N2C(=O)c3ccccc3C2=O)C(=O)N1 (stereo not given) [Thalidomide]
normalised viability [%]
Conditions	3 nM	10 nM	30 nM	100 nM	1000 nM	10000 nM
BT-474	–	110	–	–	110	108
BT-549	–	76.7	–	–	91.5	81.7
CAL-51	90.8	–	90.7	91.3	–	–
CAL-85-1	102	–	98.8	101	–	–
CAL-120	–	111	–	–	106	96.8
CAL-148	115	–	116	116	–	–
DU-4475	98.9	–	99.7	109	–	–
HCC1143	–	109	–	–	102	107
HCC1599	–	101	–	–	86	102
HCC1937	–	85.8	–	–	73.4	77.9
HDQ-P1	107	–	101	103	–	–
Hs578T	–	97.8	–	–	108	106
MDA-MB-453	99	–	99.3	89.7	–	–
MDA-MB-468	–	97.9	–	–	101	105
SK-BR-3	–	97.9	–	–	112	109

Oc1nc(-c2ccc(C(F)(F)F)cc2)nc2c1CSCC2 [XAV-939]
normalised viability [%]
Conditions	3 nM	10 nM	30 nM	100 nM	1000 nM	10000 nM
BT-474	–	107	–	–	100	103
BT-549	–	91.3	–	–	94.5	101
CAL-51	102	–	101	101	–	–
CAL-85-1	96	–	92.8	94.7	–	–
CAL-120	–	90.6	–	–	92.8	105
CAL-148	89.3	–	90.4	94.3	–	–
DU-4475	117	–	101	121	–	–
HCC1143	–	80.4	–	–	81.9	80.9
HCC1599	–	118	–	–	95	115
HCC1937	–	113	–	–	89.3	122
HDQ-P1	113	–	104	98.6	–	–
Hs578T	–	90.8	–	–	82.3	85.5
MDA-MB-453	104	–	94.2	105	–	–
MDA-MB-468	–	111	–	–	105	98.4
SK-BR-3	–	99.5	–	–	104	115

CCC1=C[C@@H]2CN(C1)Cc1c([nH]c3ccccc13)[C@@](C(=O)OC)(c1cc3c(cc1OC)N(C)[C@H]1[C@@](O)(C(=O)OC)[C@H](OC(C)=O)[C@]4(CC)C=CCN5CC[C@]31[C@@H]54)C2 [Vinorelbine]
normalised viability [%]
Conditions	3 nM	10 nM	30 nM	100 nM	1000 nM	10000 nM
BT-474	–	108	–	–	44.4	58.1
BT-549	–	94.9	–	–	15.8	11.4
CAL-51	110	–	91.7	58.1	–	–
CAL-85-1	94.2	–	60.3	34.5	–	–
CAL-120	–	84.1	–	–	24.3	25.4
CAL-148	106	–	91.4	18.7	–	–
DU-4475	96.7	–	91.3	79.4	–	–
HCC1143	–	93.9	–	–	45.8	38.7
HCC1599	–	84.2	–	–	44.4	53.5
HCC1937	–	83.2	–	–	14.7	19.5
HDQ-P1	95.3	–	81.2	65	–	–
Hs578T	–	93.7	–	–	16.1	15.9
MDA-MB-453	110	–	43	25.1	–	–
MDA-MB-468	–	104	–	–	53.6	33.8
SK-BR-3	–	99.4	–	–	17.7	18.3

CN[C@@H]1C[C@H]2O[C@@](C)([C@@H]1OC)n1c3ccccc3c3c4c(c5c6ccccc6n2c5c31)C(=O)N[C@H]4O [UCN-01]
normalised viability [%]
Conditions	3 nM	10 nM	30 nM	100 nM	1000 nM	10000 nM
BT-474	–	108	–	–	44.2	2.62
BT-549	–	91.4	–	–	11.8	0.77
CAL-51	99.7	–	87.2	62.6	–	–
CAL-85-1	87.4	–	73.6	60.4	–	–
CAL-120	–	72.8	–	–	17.7	9.93
CAL-148	92.2	–	105	106	–	–
DU-4475	109	–	81.5	78.3	–	–
HCC1143	–	77.7	–	–	20.6	20.4
HCC1599	–	81.1	–	–	48.3	21.2
HCC1937	–	71.7	–	–	25.6	7.84
HDQ-P1	82.2	–	66.8	39.6	–	–
Hs578T	–	88.3	–	–	7.74	0.41
MDA-MB-453	98	–	86.8	65	–	–
MDA-MB-468	–	126	–	–	7.27	6.64
SK-BR-3	–	101	–	–	16.5	3.68

COc1cc2nccc(Oc3ccc(NC(=O)C4(C(=O)Nc5ccc(F)cc5)CC4)cc3)c2cc1OC [Cabozantinib]
normalised viability [%]
Conditions	0.3 nM	1 nM	3 nM	10 nM	100 nM	1000 nM
BT-474	–	125	–	–	119	127
BT-549	–	96.3	–	–	108	101
CAL-51	109	–	106	97.8	–	–
CAL-85-1	89.2	–	87.5	88.9	–	–
CAL-120	–	85.5	–	–	77.8	86.5
CAL-148	94.5	–	103	94.2	–	–
DU-4475	90.4	–	78	88.4	–	–
HCC1143	–	78.9	–	–	87.9	85.5
HCC1599	–	91.8	–	–	88.6	74.6
HCC1937	–	98	–	–	87.5	100
HDQ-P1	97.7	–	93.7	112	–	–
Hs578T	–	128	–	–	102	111
MDA-MB-453	111	–	96.9	108	–	–
MDA-MB-468	–	110	–	–	106	101
SK-BR-3	–	115	–	–	110	109
